Here are results for two compounds from patent US10059713B2 (Takeda Pharmaceutical Company Limited, priority 2014, dated 2018).

The assay has as its target human GPR43 (Homo sapiens (Human), UniProt O15552). In words: Ca-Flux functional assay: determination of agonist/positive allosteric modulator (PAM) activity. The format is cell-based. The conditions noted are these: CHO-K1 Gα16 cells stably expressing human GPR43; compound added with EC20 sodium acetate; intracellular Ca2+ by FLIPR; does not distinguish agonist from PAM. An outline of the steps:
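CHO-K1 Gα16 cells stably expressing human GPR43, loaded with Calcium 5 dye 1 h; compounds (10-point half-log from 10 μM) added with sodium acetate at EC20. FLIPR calcium signal gave EC50, two wells per point; agonists and PAMs not distinguished.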

A word on the pEC50: it is −log10 of the EC50, conventionally taken in molar units. A lower pEC50 goes with a large EC50.

pEC50: −log10 of the molar value.

Sequence of human GPR43 (O15552 whole entry): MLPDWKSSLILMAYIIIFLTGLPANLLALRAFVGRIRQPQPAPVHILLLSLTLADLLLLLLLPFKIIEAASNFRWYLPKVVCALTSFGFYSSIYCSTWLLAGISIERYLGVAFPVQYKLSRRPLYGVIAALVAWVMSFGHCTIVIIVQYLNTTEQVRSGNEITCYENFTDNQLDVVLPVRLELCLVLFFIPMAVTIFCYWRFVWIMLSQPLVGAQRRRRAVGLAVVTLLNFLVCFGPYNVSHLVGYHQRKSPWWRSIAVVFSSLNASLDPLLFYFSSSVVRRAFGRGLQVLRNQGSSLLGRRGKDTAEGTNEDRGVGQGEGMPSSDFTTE

As to `COCC1CCN(c2ncnc3c(S(=O)(=O)c4ccccc4)c(N)[nH]c23)CC1` [Example 112, 7-(benzenesulfonyl)-4-[4-(methoxymethyl)piperidin-1-yl]-5H-pyrrolo[3,2-d]pyrimidin-6-amine], the negative logarithm of the EC50 (pEC50) is 6.09.

In the case of `Cc1nc(N2CCOC(C)(C)C2)c2[nH]c(N)c(S(=O)(=O)c3ccccc3)c2n1` [Example 139, 7-(benzenesulfonyl)-4-(2,2-dimethylmorpholin-4-yl)-2-methyl-5H-pyrrolo[3,2-d]pyrimidin-6-amine], the pEC50 is 7.89.
